Values joined by “and” are separate entries in the source; they are usually repeats but may differ in a detail not shown here. Identical values can stand only once. Toxic doses and inconclusive results are not listed.
Tested on: BDF1 mice, B16 melanoma ip, median survival T/C
Assay: NCI In Vivo Anticancer Drug Screen. Data for tumor model B16 Melanoma (intraperitoneal) in B6D2F1 (BDF1) mice
Details: endpoint: median survival time, higher = longer survival
Outline: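 Read-out: survival or tumor size, given as treated/control ratio. Controls received vehicle only; animals bore transplantable tumors.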

[1] = dose: 3.13 mg/kg/injection, schedule: Q01DX009 (ip), vehicle: saline with Tween-80
[2] = dose: 6.25 mg/kg/injection, schedule: Q01DX009 (ip), vehicle: saline with Tween-80
[3] = dose: 25.0 mg/kg/injection, schedule: Q01DX009 (ip), vehicle: saline with Tween-80
[4] = dose: 12.5 mg/kg/injection, schedule: Q01DX009 (ip), vehicle: water
[5] = dose: 12.5 mg/kg/injection, schedule: Q01DX009 (ip), vehicle: saline with Tween-80
[6] = dose: 10.0 mg/kg/injection, schedule: Q01DX009 (ip), vehicle: Klucel (hydroxypropylcellulose) (HPC)
[7] = dose: 5.0 mg/kg/injection, schedule: Q01DX009 (ip), vehicle: Klucel (hydroxypropylcellulose) (HPC)
[8] = dose: 100.0 mg/kg/injection, schedule: Q01DX009 (ip), vehicle: Klucel (hydroxypropylcellulose) (HPC)

SMILES: CC(=O)NC(Cc1ccc(N(CCCl)CCCl)cc1)C(=O)O (stereo unspecified)
- T/C [1]: 109 % of control
- T/C [2]: 117 % of control
- T/C [3]: 113 % of control

SMILES: CCCC1CC[N-]CC1.CCCC1CC[N-]CC1.[Br][Pt+2]([Br])([Br])[Br]
- T/C (dose: 3.13 mg/kg/injection, schedule: Q01DX009 (ip), vehicle: water): 98 % of control
- T/C (dose: 6.25 mg/kg/injection, schedule: Q01DX009 (ip), vehicle: water): 102 % of control
- T/C [4]: 97 % of control

SMILES: CCN(CCP(c1ccccc1)c1ccccc1)CCP(c1ccccc1)c1ccccc1
- T/C [1]: 119 % of control
- T/C [2]: 113 % of control
- T/C [5]: 90 % of control and 115 % of control
- T/C (dose: 12.5 mg/kg/injection, schedule: Q04DX003 (ip), vehicle: saline with Tween-80): 104 % of control
- T/C [3]: 100 % of control
- T/C (dose: 25.0 mg/kg/injection, schedule: Q04DX003 (ip), vehicle: saline with Tween-80): 107 % of control
- T/C (dose: 50.0 mg/kg/injection, schedule: Q04DX003 (ip), vehicle: saline with Tween-80): 109 % of control

SMILES: COc1cc2ccc3c4cc5c(cc4c[n+](C)c3c2cc1OC)OCO5
- T/C [6]: 104 % of control

SMILES: CCNCC#CCNCC
- T/C (dose: 50.0 mg/kg/injection, schedule: Q01DX009 (ip), vehicle: saline): 107 % of control
- T/C (dose: 100.0 mg/kg/injection, schedule: Q01DX009 (ip), vehicle: saline): 94 % of control

SMILES: COc1ccc(Nc2c3ccccc3nc3ccccc23)cc1
- T/C [5]: 120 % of control

SMILES: CCC1CC(O)c2c(O)c3c(c(O)c2C1O)C(=O)c1cccc(O)c1C3=O (stereo unspecified) (tested in a mixture with another compound)
- T/C (dose: 0.01 mg/kg/injection, schedule: Q01DX009 (ip), vehicle: saline): 95 % of control
- T/C (dose: 0.03 mg/kg/injection, schedule: Q01DX009 (ip), vehicle: saline): 86 % of control
- T/C (dose: 0.06 mg/kg/injection, schedule: Q04DX003 (ip), vehicle: saline): 102 % of control
- T/C (dose: 0.12 mg/kg/injection, schedule: Q04DX003 (ip), vehicle: saline): 109 % of control
- T/C (dose: 15.0 micrograms/kg/injection, schedule: Q01DX009 (ip), vehicle: saline): 119 % of control

SMILES: CC1CN1C(=O)NCCCCCCNC(=O)N1CC1C (stereo unspecified)
- T/C (dose: 1.25 mg/kg/injection, schedule: Q01DX009 (ip), vehicle: Klucel (hydroxypropylcellulose) (HPC)): 151 % of control
- T/C (dose: 1.25 mg/kg/injection, schedule: Q01DX009 (ip), vehicle: saline): 152 % of control
- T/C (dose: 2.5 mg/kg/injection, schedule: Q01DX009 (ip), vehicle: saline): 180 % of control
- T/C [7]: 158 % of control
- T/C (dose: 5.0 mg/kg/injection, schedule: Q01DX009 (ip), vehicle: saline): 202 % of control

SMILES: Cc1cc(=O)[nH]c2ccc(-c3ccc4[nH]c(=O)cc(C)c4c3)cc12
- T/C [8]: 96 % of control
- T/C (dose: 200.0 mg/kg/injection, schedule: Q01DX009 (ip), vehicle: Klucel (hydroxypropylcellulose) (HPC)): 93 % of control

SMILES: COc1cc(C(O)C(Cl)(Cl)Cl)ccc1O (stereo unspecified)
- T/C (dose: 100.0 mg/kg/injection, schedule: Q01DX009 (ip), vehicle: other): 94 % of control
- T/C (dose: 200.0 mg/kg/injection, schedule: Q01DX009 (ip), vehicle: other): 91 % of control

SMILES: CC(C)C(O)(C(=O)OCC1=CC[N+]2(C)CCC(O)C12)C(C)O (stereo unspecified)
- T/C [4]: 105 % of control
- T/C (dose: 25.0 mg/kg/injection, schedule: Q01DX009 (ip), vehicle: water): 107 % of control
- T/C (dose: 50.0 mg/kg/injection, schedule: Q01DX009 (ip), vehicle: water): 113 % of control
- T/C (dose: 100.0 mg/kg/injection, schedule: Q01DX009 (ip), vehicle: water): 109 % of control
- T/C (dose: 200.0 mg/kg/injection, schedule: Q01DX009 (ip), vehicle: water): 108 % of control

SMILES: C[As](C)Sc1ccnc(S[As](C)C)n1
- T/C (dose: 50.0 mg/kg/injection, schedule: Q01DX009 (ip), vehicle: Klucel (hydroxypropylcellulose) (HPC)): 100 % of control
- T/C [8]: 119 % of control

SMILES: O=CNC(Cc1ccccc1)Cc1ccccc1
- T/C [7]: 96 % of control
- T/C [6]: 100 % of control
- T/C (dose: 20.0 mg/kg/injection, schedule: Q01DX009 (ip), vehicle: Klucel (hydroxypropylcellulose) (HPC)): 100 % of control

From PubChem BioAssay AID192 (DTP/NCI, 2004)
